These are literature values, as cited in PubChem BioAssay AID1259409 (Chemical Carcinogenesis Research Information System (CCRIS), 2018).

The series has as its system rodent chemically induced tumor inhibition, incidence and multiplicity. The experiment in a line: CCRIS tumor inhibitor studies. The settings on record: Carcinogen: OCHRATOXIN A, 303-47-9, Route [Inhibitor]: ORAL, Species: RAT, Dose [Carcinogen]: 0.4 MG/KG BW 3X/WK FOR LIFETIME, Promoter: NONE.

Regarding `O=S(=O)(O)CCS`, the outcome runs as follows: (Dose [Inhibitor]: 1 G/L IN DRINKING WATER FOR LIFETIME (STUDY DURATION: LIFETIME), Strain/Sex: DA/FEMALE, Target Tissue: Type of Lesion: URETHRA: TRANSITIONAL CELL CARCINOMA) 0/40 (0%), 0/40 (0%), 0%, not significant; (Dose [Inhibitor]: 1 G/L IN DRINKING WATER FOR LIFETIME (STUDY DURATION: LIFETIME), Strain/Sex: DA/FEMALE, Target Tissue: Type of Lesion: URINARY BLADDER: TRANSITIONAL CELL CARCINOMA) 0/40 (0%), 0/40 (0%), 0%, not significant; (Dose [Inhibitor]: 1 G/L IN DRINKING WATER FOR LIFETIME (STUDY DURATION: LIFETIME), Strain/Sex: DA/MALE, Target Tissue: Type of Lesion: URETHRA: TRANSITIONAL CELL CARCINOMA) 0/20 (0%), 0/20 (0%), 0%, not significant; (Dose [Inhibitor]: 1 G/L IN DRINKING WATER FOR LIFETIME (STUDY DURATION: LIFETIME), Strain/Sex: DA/MALE, Target Tissue: Type of Lesion: URINARY BLADDER: TRANSITIONAL CELL PAPILLOMA) 0/20 (0%), 0/20 (0%), 0%, not significant; (Dose [Inhibitor]: 1 G/L IN DRINKING WATER FOR LIFETIME (STUDY DURATION: LIFETIME), Strain/Sex: LEWIS/FEMALE, Target Tissue: Type of Lesion: KIDNEY: TUBULAR CELL ADENOMA) 0/20 (0%), 0/20 (0%), 0%, not significant; (Dose [Inhibitor]: 1 G/L IN DRINKING WATER FOR LIFETIME (STUDY DURATION: LIFETIME), Strain/Sex: LEWIS/FEMALE, Target Tissue: Type of Lesion: URETHRA: TRANSITIONAL CELL CARCINOMA) 0/20 (0%), 0/20 (0%), 0%, not significant. Besides, the outcome was 0/20 (0%), 0/20 (0%), 0%, not significant (Dose [Inhibitor]: 1 G/L IN DRINKING WATER FOR LIFETIME (STUDY DURATION: LIFETIME), Strain/Sex: LEWIS/MALE, Target Tissue: Type of Lesion: KIDNEY: TUBULAR CELL ADENOMA); 0/20 (0%), 0/20 (0%), 0%, not significant (Dose [Inhibitor]: 1 G/L IN DRINKING WATER FOR LIFETIME (STUDY DURATION: LIFETIME), Strain/Sex: LEWIS/MALE, Target Tissue: Type of Lesion: URETHRA: TRANSITIONAL CELL CARCINOMA); 0/20 (0%), 0/20 (0%), 0%, not significant (Dose [Inhibitor]: 1 G/L IN DRINKING WATER FOR LIFETIME (STUDY DURATION: LIFETIME), Strain/Sex: LEWIS/MALE, Target Tissue: Type of Lesion: URINARY BLADDER: TRANSITIONAL CELL CARCINOMA); 0/20 (0%), 0/20 (0%), 0%, not significant (Dose [Inhibitor]: 1 G/L IN DRINKING WATER FOR LIFETIME (STUDY DURATION: LIFETIME), Strain/Sex: LEWIS/MALE, Target Tissue: Type of Lesion: URINARY BLADDER: TRANSITIONAL CELL PAPILLOMA); 0/40 (0%), 0/40 (0%), 0%, not significant (Dose [Inhibitor]: 1 G/LITER IN DRINKING WATER FOR LIFETIME (STUDY DURATION: LIFETIME), Strain/Sex: DA/FEMALE, Target Tissue: Type of Lesion: KIDNEY: TUBULAR CELL ADENOMA); 0/40 (0%), 0/40 (0%), 0%, not significant (Dose [Inhibitor]: 1 G/LITER IN DRINKING WATER FOR LIFETIME (STUDY DURATION: LIFETIME), Strain/Sex: DA/FEMALE, Target Tissue: Type of Lesion: KIDNEY: TUBULAR CELL CARCINOMA). In addition, the “tumour outcome (control, treated, inhibition, significance)” value reads like this: (Dose [Inhibitor]: 1 G/L IN DRINKING WATER FOR LIFETIME (STUDY DURATION: LIFETIME), Strain/Sex: DA/MALE, Target Tissue: Type of Lesion: KIDNEY: TUBULAR CELL ADENOMA) 1/20 (5%), 0/20 (0%), 100%, not significant; (Dose [Inhibitor]: 1 G/L IN DRINKING WATER FOR LIFETIME (STUDY DURATION: LIFETIME), Strain/Sex: DA/MALE, Target Tissue: Type of Lesion: KIDNEY: TUBULAR CELL CARCINOMA) 6/20 (30%), 2/20 (40%), -33%, not significant; (Dose [Inhibitor]: 1 G/L IN DRINKING WATER FOR LIFETIME (STUDY DURATION: LIFETIME), Strain/Sex: LEWIS/MALE, Target Tissue: Type of Lesion: KIDNEY: TUBULAR CELL CARCINOMA) 2/20 (10%), 1/20 (5%), 50%, not significant.
